Among the data in PMC10877733, “Discovery and Characterization of VU0542270, the First Selective Inhibitor of Vascular Kir6.1/SUR2B KATP Channels” (Molecular Pharmacology, 2024) are fraction unbound and IC50 values, retold here.

Each structure is given as a SMILES string. Like-named read-outs stand apart in the source and are kept apart here.

Data set [1] is described as follows: Brain homogenate binding by equilibrium dialysis, mouse. In kind it is in vitro ADME. The note with it: read-out: Fu, brain (mouse). The procedure:
Determination of VU0542270 fu in […] from mouse and rat was conducted using the same methodology and procedure as described for plasma protein binding assay with the following modifications: 1) a final compound concentration of 1 μM was used, and 2) naïve rat brains were homogenized in DPBS (1:3 composition of brain:DPBS, w/w) using a Mini-Bead Beater machine to obtain brain homogenate.
The diluted fraction unbound (fu2) in brain was calculated as (analyte to IS MS peak area ratio from Trans-buffer side)/(analyte to IS MS peak area ratio from Cis-brain homogenate side). Undiluted fraction unbound for the brain was calculated using the following equation: [drawing 1]
Mean values for each species were calculated from three replicates.
(Equilibrium dialysis compares concentrations on both sides of a semipermeable membrane.)

Data set [2] in a line: Plasma binding by equilibrium dialysis, mouse. In kind it is in vitro ADME. To be noted: equilibrium dialysis 6 hours 37°C, read-out: Fu, plasma (mouse). The procedure: (§1) Determination of VU0542270 fraction unbound (fu) in plasma from mouse, rat, and human was conducted in vitro via equilibrium dialysis using high-throughput dialysis (HTD) membrane plates. Dialysis membranes (four paired strips per HTD assay) were hydrated as described by the manufacturer and inserted into the HTD plate, which was assembled and prepared for sample addition by the dispensing of blank buffer [Delbecco’s phosphate buffered saline (DPBS), 100 µL/well] into the “top half” of each membrane-split well. VU0542270 was diluted into plasma from each species (5 µM final concentration), which was aliquoted in triplicate to the “bottom half” of the prepared HTD plate wells. The HTD plate was sealed and incubated for 6 hours at 37°C. Following incubation, each well (both top and bottom halves) was transferred (20 µL) to the corresponding well of a 96-shallow-well (V-bottom) plate. […]
(§2) fu was calculated as (analyte to IS mass spectrometry (MS) peak area ratio from Trans-buffer side)/(analyte to IS MS peak area ratio from Cis-plasma side). Mean values for each species were calculated from three replicates.

The target in data set [3] is T1, Kir1.1 (Homo sapiens, UniProt P48048).
T1 construct: expressed in transfected cells
T1 sequence (P48048 1-391): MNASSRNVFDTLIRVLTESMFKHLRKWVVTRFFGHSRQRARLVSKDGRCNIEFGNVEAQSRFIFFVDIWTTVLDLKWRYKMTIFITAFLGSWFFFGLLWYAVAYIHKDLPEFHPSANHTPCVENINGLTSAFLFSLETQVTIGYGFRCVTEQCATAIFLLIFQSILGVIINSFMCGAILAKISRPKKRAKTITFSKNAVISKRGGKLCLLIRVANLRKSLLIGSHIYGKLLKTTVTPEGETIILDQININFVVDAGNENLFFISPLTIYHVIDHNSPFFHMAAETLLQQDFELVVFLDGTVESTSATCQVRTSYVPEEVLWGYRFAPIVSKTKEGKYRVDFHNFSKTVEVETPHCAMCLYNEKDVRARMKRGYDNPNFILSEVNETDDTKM
Description: Thallium flux selectivity assay Kir1.1. In kind it is cell-based. The procedure: Quantitative thallium flux assays of Kir6.1/SUR2B activity were performed essentially as described previously for Kir6.2/SUR1 ([Raphemot et al., 2014]; [Kharade et al., 2019]). Stable T-Rex-HEK293-Kir6.1/SUR2B cells or transiently transfected HEK293T cells were plated in polyamine-coated, clear-bottomed, black-walled 384-well plates and were cultured (37°C/5% CO2) overnight in Dulbecco’s modified Eagle’s medium (Gibco, Carlsbad, CA, 11995-065) containing 10% FBS (2 mM Penicillin-Streptomycin). The following day, cells were washed with assay buffer (i.e., Hanks’ balanced salt solution/20 mM HEPES) and loaded for 1 hour with thallium sensor dye Brilliant Thallium (Ion Bioscience, San Marcos, TX) at room temperature. Dye-loaded cells were washed with assay buffer and transferred to a Panoptic Kinetic Imaging Plate Reader (Wavefront Bioscience, Franklin, TN). Control and test compound treatments were for 4 minutes prior to adding 0.5 mM chloride-free thallium stimulus buffer (Ion Bioscience) to initiate thallium flux. […] Selectivity assays against other Kir channels were performed essentially as described previously ([Kharade et al., 2018]; [McClenahan et al., 2022]).

Data set [4] is described as follows: Plasma binding by equilibrium dialysis, rat. In kind it is in vitro ADME. To be noted: equilibrium dialysis 6 hours 37°C, read-out: Fu, plasma (rat). The procedure: as §1, §2
For data set [5], the target named is T2, Kir6.1/SUR2B (Homo sapiens, UniProt O60706).
T2 construct: expressed in transfected cells; also transiently transfected HEK293T
In words: Thallium flux assay of Kir6.1/SUR2B in HEK293 cells. Format: cell-based. From the text:
The pcDNA3.1-SUR2B plasmid was generously provided by Dr. Colin Nichols (Washington University). […] Stably transfected tetracycline-regulated expression human embryonic kidney-293 (T-Rex-HEK293) cells expressing both plasmids were generated by cotransfecting cells with Lipofectamine LTX followed by antibiotic selection and clonal selection using the thallium flux assay described below. […] The cell culture media contained Dulbecco's modified Eagle's medium (Gibco, 11965-092) supplied with heat-inactivated FBS (bio-techne, Minneapolis, MN […],10%), Blasticidine HCl (Gibco, A11139-03, 10 ug/mL), Penicillin-Streptomycin (Gibco, 15140-122, 2 mM), G418 Sulfate (CORNING, Corning, NY, 30-234-CR, 1 mg/mL), and Hygromycin B (Invitrogen, Carlsbad, CA, 10687-010, 250 ug/mL). For selectivity assays, HEK293T cells were cotransfected with Kir6.x and SURX with Lipofectamine LTX and incubated for 48 hours before thallium flux assays. […] [[…] et al., 2019]). […] Dye-loaded cells were washed with assay buffer and transferred to a Panoptic Kinetic Imaging Plate Reader (Wavefront Bioscience, Franklin, TN). Control and test compound treatments were for 4 minutes prior to adding 0.5 mM chloride-free thallium stimulus buffer (Ion Bioscience) to initiate thallium flux. […] Selectivity assays against other Kir channels were performed essentially as described previously ([[…] et al., 2018]; [[…] al., 2022]). […] Data were acquired using Panoptic Software, Waveguide (Wavefront Biosciences). Raw fluorescence values were imported for analysis into custom software (VICB, Vanderbilt University). Fluorescence versus time values for each well were normalized to the initial fluorescence value [F/F0]. […] CRC data were plotted in GraphPad Prism (GraphPad Software, San Diego, CA) and fitted with a four-parameter logistic model to determine IC50 values for rank-ordering hit potency.

T2 sequence (O60706 1-1549 isoform O60706-2, species assumed): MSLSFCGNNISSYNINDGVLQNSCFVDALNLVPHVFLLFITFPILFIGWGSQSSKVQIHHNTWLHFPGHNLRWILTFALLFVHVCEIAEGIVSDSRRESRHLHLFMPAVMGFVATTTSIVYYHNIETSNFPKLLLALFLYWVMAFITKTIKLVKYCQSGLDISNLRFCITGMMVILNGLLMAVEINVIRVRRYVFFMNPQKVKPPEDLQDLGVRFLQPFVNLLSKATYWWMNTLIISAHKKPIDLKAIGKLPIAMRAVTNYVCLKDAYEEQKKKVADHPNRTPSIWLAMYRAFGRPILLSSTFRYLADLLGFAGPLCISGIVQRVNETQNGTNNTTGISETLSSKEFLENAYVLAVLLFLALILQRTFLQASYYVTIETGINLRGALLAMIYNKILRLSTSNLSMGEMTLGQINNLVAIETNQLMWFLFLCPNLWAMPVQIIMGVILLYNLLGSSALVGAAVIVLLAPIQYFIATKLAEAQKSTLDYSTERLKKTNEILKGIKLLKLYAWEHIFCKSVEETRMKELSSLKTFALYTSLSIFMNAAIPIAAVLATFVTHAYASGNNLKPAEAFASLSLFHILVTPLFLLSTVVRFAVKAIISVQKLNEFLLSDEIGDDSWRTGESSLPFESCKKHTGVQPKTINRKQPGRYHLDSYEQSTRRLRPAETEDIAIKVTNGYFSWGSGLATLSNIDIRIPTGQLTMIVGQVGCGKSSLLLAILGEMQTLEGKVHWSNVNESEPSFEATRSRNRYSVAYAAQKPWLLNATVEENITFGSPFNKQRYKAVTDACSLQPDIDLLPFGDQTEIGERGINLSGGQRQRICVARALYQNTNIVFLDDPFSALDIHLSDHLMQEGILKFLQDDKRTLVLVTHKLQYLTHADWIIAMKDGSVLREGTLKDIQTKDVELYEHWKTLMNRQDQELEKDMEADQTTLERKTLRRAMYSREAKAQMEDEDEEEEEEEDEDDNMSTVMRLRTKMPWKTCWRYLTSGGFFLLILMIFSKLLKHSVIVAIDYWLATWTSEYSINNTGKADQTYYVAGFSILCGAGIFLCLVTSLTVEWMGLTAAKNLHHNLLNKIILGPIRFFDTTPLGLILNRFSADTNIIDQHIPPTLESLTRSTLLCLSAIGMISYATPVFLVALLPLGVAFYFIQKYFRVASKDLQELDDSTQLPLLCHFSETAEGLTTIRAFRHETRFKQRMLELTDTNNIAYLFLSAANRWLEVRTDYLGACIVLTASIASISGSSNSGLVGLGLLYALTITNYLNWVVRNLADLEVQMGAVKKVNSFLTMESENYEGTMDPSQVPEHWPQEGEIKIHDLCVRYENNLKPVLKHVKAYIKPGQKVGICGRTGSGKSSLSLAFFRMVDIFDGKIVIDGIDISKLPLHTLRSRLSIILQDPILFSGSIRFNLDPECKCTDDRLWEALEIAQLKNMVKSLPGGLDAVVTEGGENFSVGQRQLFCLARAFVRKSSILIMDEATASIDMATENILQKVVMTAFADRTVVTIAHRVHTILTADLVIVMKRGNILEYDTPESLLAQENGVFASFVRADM
T2 sequence (Q15842 whole entry partner, species assumed): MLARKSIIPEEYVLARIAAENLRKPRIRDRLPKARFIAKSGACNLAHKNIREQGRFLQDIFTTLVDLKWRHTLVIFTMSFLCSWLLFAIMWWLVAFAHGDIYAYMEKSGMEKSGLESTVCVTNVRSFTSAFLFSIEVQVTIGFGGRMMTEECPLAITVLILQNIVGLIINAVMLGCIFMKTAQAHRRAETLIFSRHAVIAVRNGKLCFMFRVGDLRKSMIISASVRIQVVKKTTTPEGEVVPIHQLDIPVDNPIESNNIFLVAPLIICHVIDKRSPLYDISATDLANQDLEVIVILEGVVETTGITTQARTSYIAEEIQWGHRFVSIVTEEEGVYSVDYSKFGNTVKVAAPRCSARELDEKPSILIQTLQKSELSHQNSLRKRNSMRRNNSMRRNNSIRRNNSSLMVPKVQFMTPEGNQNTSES

`Cc1nc(-c2cccs2)sc1CNC(=O)Nc1cccs1` [VU0542270]: the fraction unbound at 6 h, 1 µM in data set [1] is 0.02. Moreover, the fraction unbound at 6 h, 5 µM in data set [2] and in data set [4] was 0.01 throughout. Moreover, the IC50 in data set [3] is greater than 30000 nM; in data set [5] (Table 1 selectivity profile, read-out: IC50 Kir6.1/SUR2B), 110 nM; in data set [5] (pinacidil-activated, read-out: Kir6.1/SUR2B IC50), 104 nM; in data set [5] (transfected HEK-293 cells, pinacidil activation, read-out: Kir6.1/SUR2B IC50 (Fig. 4C)), 129 nM.
